# From the SangsterLogP compilation
# Test: not given
# Conditions: not given
row,logP,Compound
1,1.73,COc1ccc(N2Cn3c(nc4ccccc4c3=O)C2C)cc1 (stereo not given)
2,1.78,CC1c2nc3ccccc3c(=O)n2CN1c1ccccc1 (stereo not given)
3,1.74,CC1c2nc3ccccc3c(=O)n2CN1Cc1ccccc1 (stereo not given)
4,2.16,Cc1ccc(N2Cn3c(nc4ccccc4c3=O)C2C)cc1 (stereo not given)
5,1.8,CC1c2nc3ccccc3c(=O)n2CN1CCc1ccccc1 (stereo not given)

# Test: method code SF-AS, from DOI: 10.1080/01483919008048971
# Conditions: pH 5.0
row,logD,Compound
1,1.02,CCN1Cn2c(nc3ccccc3c2=O)C1C (stereo not given)
2,1.4,CCCN1Cn2c(nc3ccccc3c2=O)C1C (stereo not given)
3,1.6,CCCCN1Cn2c(nc3ccccc3c2=O)C1C (stereo not given)
4,0.85,CC1c2nc3ccccc3c(=O)n2CN1C (stereo not given)
5,0.46,CC1c2nc3ccccc3c(=O)n2CN1CCO (stereo not given)
